Consider 24 molecules from ChEMBL document CHEMBL1128016, “5-Cyano-2-thiouracils and their derivatives: a new class of leishmanicides” (1994).

One test relates to Leishmania donovani. The experiment in a line: In vivo anti-leishmanial activity against hamster amastigotes of Leishmania donovani at a dose of 10 mg/kg for a period of 5 days. Type of test: functional, organism-based. Also on record: dose 10 mg/kg.
Sodium stibogluconate yielded an inhibition of 86%.

The subject of a further test is Leishmania donovani. The experiment in a line: In vivo anti-leishmanial activity was determined against hamster amastigotes of Leishmania donovani. Format: functional. Also on record: concentration or dose not given beside the values.
On to `Cc1ccc(-c2nc(S)nc(O)c2C#N)cc1`, for which the Inhibition came out at 63%. As to `COc1cccc(-c2nc3n(c(=O)c2C#N)CCS3)c1`, the Inhibition was 73%. The molecule `N#Cc1c(Nc2ccc(F)cc2)nc(SCc2ccccc2)nc1-c1cccnc1` registered an Inhibition of 78%.

As for `COc1cccc(-c2nc(SCc3ccccc3)nc(O)c2C#N)c1`, the Inhibition was determined as 0%.

For `CSc1nc(Cl)c(C#N)c(-c2ccc(C)cc2)n1`, the Inhibition is on record as 36%. Still for that read-out and setting: the figure for `COc1cccc(-c2nc(SCc3ccc(Cl)cc3)nc(O)c2C#N)c1` is 85%; for `CCC1NC(=S)NC(=O)C1C#N` (centres undefined) it is 80%; for `COc1cccc(-c2nc(SC)n(C)c(=O)c2C#N)c1` it is 61%. Same read-out and setting: under `COc1cccc(-c2nc(SC)nc(Cl)c2C#N)c1` stands 30%. Still for that read-out and setting: the figure for `COc1cccc(-c2nc(S)nc(O)c2C#N)c1` is 78%.

`Cc1ccc(-c2nc(SCc3ccccc3)[nH]c(=O)c2C#N)cc1` had an Inhibition of 82%. On the same count and under the same terms, the figure for `Cc1cccc(-c2nc(SCc3ccccc3)nc(O)c2C#N)c1` is 0%. Turning to `COc1cccc(-c2nc3n(c(=O)c2C#N)CCCS3)c1`, the Inhibition turned out to be 63%.

For the molecule `N#Cc1c(O)nc(SCc2ccc(Cl)cc2)nc1-c1cccnc1`, the Inhibition is listed as 84%.

`Cc1ccc(-c2nc3n(c(=O)c2C#N)CCS3)cc1` gave an Inhibition of 65%. Same read-out and setting: the figure for `C=CCSc1nc(O)c(C#N)c(-c2cccc(OC)c2)n1` is 80%; for `N#Cc1c(Nc2ccccc2)nc(SCc2ccccc2)nc1-c1cccnc1` it is 57%. `CCc1nc(SCc2ccc(Cl)cc2)nc(O)c1C#N` had an Inhibition of 76%. The same measure, in the same setting: under `Cc1ccc(-c2nc3n(c(=O)c2C#N)CCCS3)cc1` stands 62%. Molecule `N#Cc1c(O)nc(S)nc1-c1ccccc1Cl` yielded an Inhibition of 0%.

As for `C=CCSc1nc(O)c(C#N)c(-c2ccc(C)cc2)n1`, the Inhibition came out at 75%.

`N#Cc1c(O)nc(S)nc1-c1ccc(F)cc1` had an Inhibition of 63%. Still for that read-out and setting: the figure for `CSc1nc(-c2ccc(C)cc2)c(C#N)c(=O)n1C` is 50%.
